# Measurements reported in paper PMC2709467, “Synthesis of Novel 3-Aryl-N-Methyl-1,2,5,6-Tetrahydropyridine Derivatives by Suzuki coupling: As Acetyl Cholinesterase Inhibitors” (The Open Medicinal Chemistry Journal, 2007).
# Read-outs that look alike come from different tables or passages of the source.
# Tests used:
# Electric eel AChE = target: T1, Electric eel AChE (Electrophorus electricus, UniProt O42275); test: Ellman assay, […] nm; assay type: biochemical
# T1 construct: native commercial enzyme from Sigma, no further details
# T1 sequence (O42275 24-633): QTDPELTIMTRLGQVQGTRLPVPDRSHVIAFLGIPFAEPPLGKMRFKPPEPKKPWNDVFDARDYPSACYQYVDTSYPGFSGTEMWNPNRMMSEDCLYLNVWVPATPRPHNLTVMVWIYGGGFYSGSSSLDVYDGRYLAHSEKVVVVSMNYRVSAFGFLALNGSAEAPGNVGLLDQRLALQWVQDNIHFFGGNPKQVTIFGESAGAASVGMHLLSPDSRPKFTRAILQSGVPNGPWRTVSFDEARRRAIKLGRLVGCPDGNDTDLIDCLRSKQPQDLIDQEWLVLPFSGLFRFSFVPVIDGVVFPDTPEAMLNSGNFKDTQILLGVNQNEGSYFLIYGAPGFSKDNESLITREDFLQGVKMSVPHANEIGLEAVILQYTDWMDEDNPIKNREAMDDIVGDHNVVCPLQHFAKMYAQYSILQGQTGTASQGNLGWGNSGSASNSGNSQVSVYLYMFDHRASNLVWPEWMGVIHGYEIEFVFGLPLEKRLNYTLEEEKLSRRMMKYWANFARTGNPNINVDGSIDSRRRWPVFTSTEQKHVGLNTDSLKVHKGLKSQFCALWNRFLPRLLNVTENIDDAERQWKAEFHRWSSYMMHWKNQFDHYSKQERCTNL
# Human Serum AChE = tested on: T2, Human Serum AChE; test: Ellman assay, […] nm; assay type: biochemical; conditions: acetylthiocholine iodide substrate, phosphate buffer pH 8.0, 37 °C, 10 min preincubation
# T2 construct: crude supernatant of citrated fresh blood (plasma), not purified
# [1] = acetylthiocholine iodide substrate, phosphate buffer pH 8.0, 37 °C, 10 min preincubation; read-out: Electric eel AChE, IC50 nM
SMILES,IC50 (Electric eel AChE; [1]) [nM],IC50 (Human Serum AChE) [nM],"IC50 (Electric eel AChE; read-out: Electric eel AChE, IC50 nM; acetylthiocholine iodide substrate, phosphate buffer pH 8.0, 37 °C, 10 min preincubation) [nM]"
"CN1CCC=C(c2ccc(C(F)(F)F)cc2)C1 [5a, 3-[4-(trifluoromethyl)phenyl]-1,2,5,6-tetrahydro-1-methylpyridine]",49.5,52,–
"CN1CCC=C(c2ccc(C#N)cc2)C1 [5b, 3-(4-cyanophenyl)-1,2,5,6-tetrahydro-1-methylpyridine]",64,68,–
"CN1CCC=C(c2ccc(Cl)cc2)C1 [5d, 3-(4-chlorophenyl)-1,2,5,6-tetrahydro-1-methylpyridine]",806,784,–
"COc1ccc(C2=CCCN(C)C2)cc1 [5e, 3-(4-methoxyphenyl)-1,2,5,6-tetrahydro-1-methylpyridine]",–,2880,–
"CN1CCC=C(c2c(Cl)cccc2Cl)C1 [5f, 3-(2,6-dichlorophenyl)-1,2,5,6-tetrahydro-1-methylpyridine]",678,729,–
"CN1CCC=C(c2ccc(Oc3ccccc3)cc2)C1 [5g, 3-(4-phenoxyphenyl)-1,2,5,6-tetrahydro-1-methylpyridine]",1230,1350,–
"CN1CCC=C(c2ccc(-c3ccccc3)c(F)c2)C1 [5h, 3-(2-fluoro-biphenyl-4-yl)-1-methyl-1,2,5,6-tetrahydropyridine]",118,116,–
"CCOc1cccc(C2=CCCN(C)C2)c1 [5j, 3-(3-ethoxyphenyl)-1,2,5,6-tetrahydro-1-methylpyridine]",1230,1220,–
"CN1CCC=C(c2cccc(Cl)c2F)C1 [5k, 3-(3-chloro-2-fluoro-phenyl)-1-methyl-1,2,5,6-tetrahydropyridine]",182,170,–
"CN(C)C(=O)Oc1cccc([N+](C)(C)C)c1 [Neostigmine, reference compound]",–,39.2,36.5
